Values quoted from earlier work, collected in patent US20140088140A1 (TEVA PHARMACEUTICAL INDUSTRIES, LTD., priority 2012, published 2014).

How the values were obtained:
Multiple Sclerosis = conditions: two phase III trials
[1] = system: genes related to antigen presentation and corresponding inflammatory pathways; conditions: mainly via the NFkB pathway
Th1 / Th2 T helper cells = conditions: animal studies
[2] = in vivo
[3] = system: Huntington's disease patients; conditions: 45 mg or 90 mg daily for 6 months

Structure (SMILES) | safety and tolerability profile (Multiple Sclerosis) | expression of genes related to antigen presentation and inflammatory pathways [1] | Th1 to Th2 shift (Th1 / Th2 T helper cells) | oral bioavailability [2] | tertiary endpoint UHDRS-TMS (changes in motor function) and individual mMS items (gait, dysarthria) [3] | symptomatic relief incl. hand movements, gait and balance (patients with HD)
CCN(C(=O)c1c(O)c2c(Cl)cccc2n(C)c1=O)c1ccccc1 [laquinimod] | favorable safety and tolerability profile | induced suppression | shift with an anti-inflammatory profile | high oral bioavailability |  | 
CCCN1CCC(c2cccc(S(C)(=O)=O)c2)CC1 [pridopidine, 4-[3-(methylsulfonyl)phenyl]-1-propyl-piperidine] |  |  |  |  | statistically significant effect of treatment | significant symptomatic relief
